Experimental data: PMC7067379, “Mapping the S1 and S1’ subsites of cysteine proteases with new dipeptidyl nitrile inhibitors as trypanocidal agents” (PLoS Neglected Tropical Diseases, 2020)
Like-named read-outs stand apart in the source and are kept apart here.

Experiments:
cathepsin L (CatL) = cathepsin L (CatL) (Homo sapiens, UniProt P07711); experiment: Cathepsin L enzyme inhibition; type: biochemical; conditions: for Ki: SD lower than 15%, read-out: pKi CatL (converted); for difference in pKi, CatL: relative to compound 11, sign not given, direction by cell colour or wording
Sequence of cathepsin L (CatL) (P07711 114-333): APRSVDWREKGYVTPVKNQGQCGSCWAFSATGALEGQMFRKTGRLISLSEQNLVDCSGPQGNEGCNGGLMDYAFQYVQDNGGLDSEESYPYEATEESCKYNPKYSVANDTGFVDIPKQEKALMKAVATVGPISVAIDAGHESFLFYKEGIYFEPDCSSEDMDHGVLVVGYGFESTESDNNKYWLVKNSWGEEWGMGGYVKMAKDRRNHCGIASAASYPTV

[1] = biological target: T1, Human recombinant cathepsin K (Homo sapiens, UniProt P43235); experiment: Cathepsin K assay; type: biochemical; conditions: for Ki: SD lower than 15%, read-out: pKi CatK (converted)
T1 sequence (P43235 115-329): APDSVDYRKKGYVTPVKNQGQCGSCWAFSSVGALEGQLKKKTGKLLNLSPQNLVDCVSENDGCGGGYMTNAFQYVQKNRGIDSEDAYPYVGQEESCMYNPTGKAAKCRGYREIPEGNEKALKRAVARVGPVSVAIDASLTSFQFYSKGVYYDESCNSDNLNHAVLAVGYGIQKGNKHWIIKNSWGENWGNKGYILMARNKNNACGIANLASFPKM
Protocol: Human recombinant cathepsin K was assayed on a FLUOSTAR Optima plate reader at 25 °C with an excitation wavelength of 360 nm and an emission wavelength of 440 nm on a 96 well plate. The enzyme solution (23 μg/mL in 50 mM sodium acetate pH 5.5, 50 mM NaCl, 0.5 mM EDTA, 5 mM DTT) was diluted 1:100 with assay buffer (100 mM sodium citrate buffer pH 5.0, 100 mM NaCl, 1 mM EDTA, 0.01% CHAPS) containing 5 mM DTT and was then incubated at 37 °C for 30 min for activation. A 1.5 mM stock solution of the substrate Z-Leu-Arg-AMC was prepared in DMSO. […] The assay was performed with a final concentration of cathepsin K of 1.73 ng/mL. Stock solutions of inhibitors were prepared in DMSO. The final DMSO concentration was 2% (4 μL). Into a well containing 194.5 μL assay buffer, 0.8 μL of the fluorogenic substrate, DMSO and inhibitor solution (3.2 μL) were added. Upon addition of cathepsin K (1.5 μL), the measurement was started and followed for 20 min.

cathepsin B (CatB) = cathepsin B (CatB) (Homo sapiens, UniProt P07858); experiment: Cathepsin B enzyme inhibition; type: biochemical; conditions: for Ki: SD lower than 15%, read-out: pKi CatB (converted)
cathepsin S (CatS) = cathepsin S (CatS) (Homo sapiens, UniProt P25774); experiment: Cathepsin S enzyme inhibition; type: biochemical; conditions: SD lower than 15%; read-out: pKi CatS (converted)
Sequence of cathepsin S (CatS) (P25774 115-331): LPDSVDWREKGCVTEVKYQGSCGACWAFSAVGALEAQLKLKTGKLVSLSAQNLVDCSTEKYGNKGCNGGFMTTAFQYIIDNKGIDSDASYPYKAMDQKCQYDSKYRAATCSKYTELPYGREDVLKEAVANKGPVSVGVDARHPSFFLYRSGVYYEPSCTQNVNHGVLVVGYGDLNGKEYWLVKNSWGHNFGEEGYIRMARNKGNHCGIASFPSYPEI
Protocol: (§1) Enzyme inhibition studies for Cz and LmCPB were performed as previously described for Cz. The experimental procedures are described in the Supporting Information (see chapter S3). Cathepsins B, L, S were assayed as reported.

[2] = test system: T. cruzi Tulahuen LacZ strain, intracellular amastigote forms; experiment: In vitro trypanocidal activity on intracellular amastigote forms (Tulahuen strain); type: cell-based, Trypanosoma cruzi; conditions: for EC50: Trypanosoma cruzi, TULAHUEN; for SI (selective index): from EC50 (T. cruzi) and CC50 (LLCMK2)
Protocol: Cells were evaluated in 96-well plates. Cells from the LLCMK2 lineage were plated at a concentration of 5x10^4 cells mL^-1. Trypomastigote forms of the Tulahuen LacZ strain were added at a concentration of 5×10^5 parasites mL^-1 and placed in the incubator at 37°C with 5% CO2 for 24 h. After the incubation period, the trypomastigote forms present were removed by successive washes with PBS, remaining only as intracellular amastigote forms. Compounds were added at different concentrations (1.95 μM to 250 μM serial dilutions) and incubated for 72 h. At the end of this period, the substrate CPRG (chlorophenol red β-D-galactopyranoside, 400 μM in 0.3% Triton X-100, pH 7.4) was added. […] Benznidazole was used as a positive control in the same concentrations as the substances, and DMSO as a negative control. Compounds were solubilized in DMSO. The selectivity index (SI) was calculated using the formula: […]. All statistical analyses were done with the program GraphPad Prism v.5.

[3] = Mammalian cytotoxicity assay (MTT); type: cell-based; conditions: rhesus monkey, LLCMK2 cells;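 also: Read-out is absorbance at 570 nm of formazan taken up in DMSO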
Protocol: LLCMK2 cells were cultured in 96-well plates at a concentration of 5 x 10^4 cells/ml. After 48 h, the plates were washed twice with PBS and 200 μL RPMI medium was added with serial dilutions of the compounds and benznidazole (1.95 μM to 250 μM) in triplicate. After 72 h at 37 °C, the cytotoxic activity of the compounds was determined by the classical MTT [3- (4,5-dimethylthiazol-2-yl) -2,5-diphenyltetrazolium bromide] method. Briefly, 50 μL MTT dissolved in PBS (2.0 mg mL^-1) was added to each well and the plates were incubated for 4 h at 37 °C. The formed formazan crystals were dissolved with DMSO (50 μL/well) and the absorbance of the samples was measured by spectrophotometer at 570 nm after 30 min.

recombinant cruzain (Cz) = recombinant cruzain (Cz) (Trypanosoma cruzi, UniProt P25779); experiment: Cruzain enzyme inhibition; type: biochemical; conditions: for difference in pKi, Cz: sign not given, direction by cell colour or wording
Sequence of recombinant cruzain (Cz) (P25779 123-337): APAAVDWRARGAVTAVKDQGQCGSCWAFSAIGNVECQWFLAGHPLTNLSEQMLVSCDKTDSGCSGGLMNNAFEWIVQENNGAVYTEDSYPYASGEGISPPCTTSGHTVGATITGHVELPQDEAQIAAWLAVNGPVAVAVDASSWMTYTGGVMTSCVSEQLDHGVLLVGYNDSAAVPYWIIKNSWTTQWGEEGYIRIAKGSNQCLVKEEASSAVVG
Protocol: as §1

[4] = biological target: Leishmania mexicana CPB (LmCPB) (Leishmania mexicana, UniProt P36400); experiment: LmCPB enzyme inhibition; type: biochemical; conditions: for difference in pKi, LmCPB: sign not given, direction by cell colour or wording
Sequence of Leishmania mexicana CPB (LmCPB) (P36400 126-443): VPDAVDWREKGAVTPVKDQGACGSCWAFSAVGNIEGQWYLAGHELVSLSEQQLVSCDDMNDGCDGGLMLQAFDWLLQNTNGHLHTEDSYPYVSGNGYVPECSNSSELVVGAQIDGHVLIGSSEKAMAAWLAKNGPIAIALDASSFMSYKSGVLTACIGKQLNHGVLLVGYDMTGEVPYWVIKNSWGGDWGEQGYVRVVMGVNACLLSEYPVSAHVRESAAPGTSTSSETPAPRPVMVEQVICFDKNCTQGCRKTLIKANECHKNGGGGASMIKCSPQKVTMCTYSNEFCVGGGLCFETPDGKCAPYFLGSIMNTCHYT
Protocol: as §1

[5] = 10 μM, replicates = 2, n.i. = no inhibition observed at 10 μM
[6] = S1 Table, maximum concentration used 250 µM, read-out: CC50
[7] = SD lower than 15%, read-out: pKi Cz (converted)
[8] = SD lower than 15%, read-out: pKi LmCPB (converted)
[9] = S1 Table, maximum concentration used 250 µM, read-out: EC50 T. cruzi
[10] = T. cruzi amastigote form, S1 Table, read-out: pEC50 (converted)
[11] = LLCMK2, 72 h, MTT, Table 2, read-out: CC50 cytotoxicity
[12] = 72 h, amastigote, Tulahuen strain, 72 h, Table 2, read-out: EC50 trypanocidal activity

SMILES | Ki (cathepsin L (CatL)) [nM] | Ki (cathepsin B (CatB)) [µM] | Ki (cathepsin S (CatS)) [nM] | CC50 at 72 h [3, 6] [µM] | melting point [°C] | Ki (recombinant cruzain (Cz); [7]) [nM] | Ki [4, 8] [nM] | Ki [1] [nM] | EC50 [2, 9] [µM] | EC50 [2, 10] [µM] | SI (selective index) ([2]; Table 2) | CC50 at 72 h [3, 11] [µM] | EC50 [2, 12] [µM] | further results
N#CC1(NC(=O)[C@H](Cc2c[nH]c3ccccc23)NC(=O)c2ccnc3cc(Cl)ccc23)CC1 [Compound 14, (S)-7-Chloro-N-(1-((1-cyanocyclopropyl)amino)-3-(1H-indol-3-yl)-1-oxopropan-2-yl)quinoline-4-carboxamide] | 2000 | 20 | 1000 | > 100 | 196 to 197 | 631 | 2000 |  |  |  |  |  |  | remaining activity (%) at 10 μM, CatK [1, 5]: n.i.^c; EC50 ([2]; read-out: EC50 T. cruzi, S1 Table, maximum concentration used 250 µM): > 100 µM
CC(C)C[C@H](NC(=O)c1ccnc2cc(Cl)ccc12)C(=O)NC1(C#N)CC1 [Compound 15, (S)-7-Chloro-N-(1-((1-cyanocyclopropyl)amino)-4-methyl-1-oxopentan-2-yl)quinoline-4-carboxamide] | 251 |  | 126 | > 100 | 169 to 170 | 15.8 | 50.1 | 126 | 77.3 | 79.4 | 1.14 | 73.6 ± 8.74 |  | difference in pKi, CatL (cathepsin L (CatL)): 1.0; remaining activity at 10 µM (cathepsin B (CatB); [5]): 89%; EC50 ([2]; 72 h, read-out: EC50 trypanocidal activity, amastigote, Tulahuen strain, 72 h, Table 2): 64.7 ± 4.32 µM
N#CC1(NC(=O)[C@H](Cc2ccccc2)NC(=O)c2cccc(OC(=O)c3ccccc3)c2)CC1 [Compound 16, (S)-3-((1-((1-Cyanocyclopropyl)amino)-1-oxo-3-phenylpropan-2-yl)carbamoyl)phenyl benzoate] | 501 | 6.31 | 50.1 |  | 185 to 187 | 126 | 100 | 631 |  | 50.1 | > 2.1 | > 100 | 47.3 ± 3.26 | 
CC(C)C[C@H](NC(=O)c1ccc(N)nc1)C(=O)NC1(C#N)CC1 [Compound 17, (S)-6-Amino-N-(1-((1-cyanocyclopropyl)amino)-4-methyl-1-oxopentan-2-yl)nicotinamide] | 316 |  | 25.1 | > 100 | 100 to 101 | 79.4 | 158 | 10 | > 100 | > 100 |  |  |  | remaining activity (%) at 10 μM, CatB (cathepsin B (CatB); [5]): n.i.^c
CC(C)C[C@H](NC(=O)c1cnc2[nH]ccc2c1)C(=O)NC1(C#N)CC1 [Compound 18, (S)-N-(1-((1-Cyanocyclopropyl)amino)-4-methyl-1-oxopentan-2-yl)-1H-pyrrolo[2,3-b]pyridine-5-carboxamide] | 79.4 | 31.6 | 50.1 | > 100 | 79 to 80 |  |  | 2 | > 100 | > 100 |  |  |  | Ki (recombinant cruzain (Cz)): 20 nM; difference in pKi, Cz (recombinant cruzain (Cz); relative to compound 11): -0.7; Ki [4]: 63.1 nM; difference in pKi, LmCPB ([4]; relative to compound 11): -0.5
C[C@@H](O)[C@H](NC(=O)c1cc(C(C)(C)C)nn1C)C(=O)NC1(C#N)CC1 [Compound 19, 3-(tert-Butyl)-N-((2S,3R)-1-((1-cyanocyclopropyl)amino)-3-hydroxy-1-oxobutan-2-yl)-1-methyl-1H-pyrazole-5-carboxamide] | 6310 | 25.1 | 10000 | > 100 | 201 to 202 |  |  | 3160 | > 100 | > 100 |  |  |  | difference in pKi, CatL (cathepsin L (CatL)): 0.5; remaining activity at 10 µM (recombinant cruzain (Cz); 10 μM, replicates = 2): 51%; remaining activity at 10 µM ([4]; 10 μM, replicates = 2): 67%
Cn1nc(C(C)(C)C)cc1C(=O)N[C@@H](Cc1ccccc1)C(=O)N[C@H](C#N)Cc1ccccc1 [Compound 50, 3-(tert-Butyl)-N-((S)-1-(((S)-1-cyano-2-phenylethyl)amino)-1-oxo-3-phenylpropan-2-yl)-1-methyl-1H-pyrazole-5-carboxamide] | 3.16 | 31.6 | 50.1 |  | 89 to 90 | 20 | 15.8 | 501 | 63.5 | 63.1 | 1.31 | 83.1 ± 6.85 | 63.3 ± 5.74 | difference in pKi, CatB (cathepsin B (CatB); relative to compound 9, sign not given, direction by cell colour or wording): 0.3; difference in pKi, Cz (recombinant cruzain (Cz); relative to compound 9): 0.4; difference in pKi, LmCPB ([4]; relative to compound 9): 0.7
Cn1nc(C(C)(C)C)cc1C(=O)N[C@@H](Cc1ccccc1)C(=O)N[C@@H](C#N)Cc1ccccc1 [Compound 51, 3-(tert-Butyl)-N-((S)-1-(((R)-1-cyano-2-phenylethyl)amino)-1-oxo-3-phenylpropan-2-yl)-1-methyl-1H-pyrazole-5-carboxamide] | 126 |  | 1260 | 42.3 | 98 to 99 | 501 | 794 | 2510 |  | 7.94 | 4.9 | 42.3 ± 3.94 | 8.6 ± 0.53 | remaining activity at 10 µM (cathepsin B (CatB); [5]): 94%
CC(C)C[C@@H](C#N)NC(=O)[C@H](Cc1ccccc1)NC(=O)c1cc(C(C)(C)C)nn1C [Compound 52, 3-(tert-Butyl)-N-((S)-1-(((S)-1-cyano-3-methylbutyl)amino)-1-oxo-3-phenylpropan-2-yl)-1-methyl-1H-pyrazole-5-carboxamide] | 5.01 | 7.94 | 126 |  | 81 to 82 | 31.6 | 39.8 | 200 |  | 3.98 |  | 97.9 ± 6.52 | 4.1 ± 0.47 | fold increase in trypanocidal potency ([2]; compared with compound 9): 17.5 fold
Cn1nc(C(C)(C)C)cc1C(=O)N[C@@H](Cc1ccccc1)C(=O)N[C@H](C#N)Cc1cccc(Cl)c1 [Compound 54, 3-(tert-Butyl)-N-((S)-1-(((S)-2-(3-chlorophenyl)-1-cyanoethyl)amino)-1-oxo-3-phenylpropan-2-yl)-1-methyl-1H-pyrazole-5-carboxamide] | 5.01 | 12.6 | 79.4 |  | 132 to 133 |  |  | 501 |  | 15.8 | 2.83 | 44.7 ± 5.24 | 15.8 ± 1.43 | Ki (recombinant cruzain (Cz)): 31.6 nM; Ki [4]: 31.6 nM
C[C@@H](OCc1ccccc1)[C@@H](C#N)NC(=O)[C@H](Cc1ccccc1)NC(=O)c1cc(C(C)(C)C)nn1C [Compound 56, N-((S)-1-(((1R,2R)-2-(Benzyloxy)-1-cyanopropyl)amino)-1-oxo-3-phenylpropan-2-yl)-3-(tert-butyl)-1-methyl-1H-pyrazole-5-carboxamide] | 100 | 6.31 | 1000 | > 100 | 115 to 116 | 501 | 316 | 2000 | > 100 | > 100 |  |  |  | EC50 ([2]; amastigote forms of T. cruzi (Tuhaluen strain), Figs 12-14, unit inferred): > 100 µM; difference in pKi, Cz (recombinant cruzain (Cz); relative to compound 9): -1.0
